Experimental data reported in ChEMBL document CHEMBL1129046, “Structure-activity relationships of the antimalarial agent artemisinin. 4. Effect of substitution at C-3” (1996).

Columns and labels:
[1] = test system: Plasmodium falciparum; assay: Relative in vitro activity against drug-resistant Plasmodium falciparum D6; type: functional
[2] = test system: Plasmodium falciparum; assay: Relative in vitro activity against drug-resistant Plasmodium falciparum W-6; type: functional

| SMILES | Relative activity [1] | Relative activity [2] |
| --- | --- | --- |
| CC(C)C[C@@]12CC[C@H]3[C@H](C)CC[C@H]4CC(=O)O[C@H](O1)[C@]43OO2 | 53 | 45 |
| CC[C@@]12CC[C@H]3[C@H](C)CC[C@H]4CC(=O)O[C@H](O1)[C@]43OO2 | 88 | 112 |
| CCOC(=O)CC[C@@]12CC[C@H]3[C@H](C)CC[C@H]4CC(=O)O[C@H](O1)[C@]43OO2 | 232 | 232 |
| CCCC[C@H]1C(=O)O[C@@H]2O[C@@]3(CCc4ccccc4)CC[C@H]4[C@H](C)CC[C@@H]1[C@@]24OO3 | 1 | 1 |
| CCCC[C@H]1C(=O)O[C@@H]2O[C@@]3(CCCc4ccc(Cl)cc4)CC[C@H]4[C@H](C)CC[C@@H]1[C@@]24OO3 | 43 | 53 |
| C[C@@H]1CC[C@H]2CC(=O)O[C@@H]3O[C@@]4(CCCc5ccc(Cl)cc5)CC[C@@H]1[C@@]23OO4 | 114 | 127 |
| CCCC[C@H]1C(=O)O[C@@H]2O[C@@]3(CC)CC[C@H]4[C@H](C)CC[C@@H]1[C@@]24OO3 | 184 | 257 |
| CCCC[C@H]1C(=O)O[C@@H]2O[C@@]3(CCCCc4ccccc4)CC[C@H]4[C@H](C)CC[C@@H]1[C@@]24OO3 | 39 | 48 |
| CCCC[C@H]1C(=O)O[C@@H]2O[C@@]3(CCCC)CC[C@H]4[C@H](C)CC[C@@H]1[C@@]24OO3 | 28 | 33 |
| C[C@@H]1CC[C@H]2CC(=O)O[C@@H]3O[C@@]4(CCCCc5ccccc5)CC[C@@H]1[C@@]23OO4 | 220 | 281 |
| CCC[C@@]12CC[C@H]3[C@H](C)CC[C@H]4CC(=O)O[C@H](O1)[C@]43OO2 | 2102 | 673 |
| C[C@@H]1CC[C@H]2[C@@H](C)C(=O)O[C@@H]3O[C@@]4(C)CC[C@@H]1[C@]32OO4 [ARTEMISININ] | 100 | 100 |
| C[C@@H]1CC[C@H]2CC(=O)O[C@@H]3O[C@@]4(CCc5ccccc5)CC[C@@H]1[C@@]23OO4 | 3 | 1 |
| CCCC[C@H]1C(=O)O[C@@H]2O[C@@]3(CCC(=O)OCC)CC[C@H]4[C@H](C)CC[C@@H]1[C@@]24OO3 | 1382 | 2285 |
| CCCC[C@@]12CC[C@H]3[C@H](C)CC[C@H]4CC(=O)O[C@H](O1)[C@]43OO2 | 20 | 18 |
